Results taken from the NIST ThermoML archive (doi:10.1016/j.fluid.2018.11.011).
Numbers after ± are expanded uncertainties.

Assay: activity coefficient (dimensionless); of the first substance listed, at infinite dilution; xn = mol fraction of the nth substance listed
Settings: 101.33 kPa, Liquid, Chromatography, x1 = 0

SMILES	activity coefficient (323 K)	activity coefficient (338 K)	activity coefficient (353 K)	activity coefficient (308 K)
CCOCC [diethyl ether] + CCCCCCCCCC[N+](C)(C)CCCCCCCCCC.[O-][Cl+3]([O-])([O-])[O-]	1.03 ± 0.1	0.848 ± 0.087	0.74 ± 0.077	
CCO [ethanol] + CCCCCCCCCC[N+](C)(C)CCCCCCCCCC.F[B-](F)(F)F	0.469 ± 0.052	0.408 ± 0.047	0.422 ± 0.048	0.539 ± 0.058
CCO [ethanol] + CCCCCCCCCC[N+](C)(C)CCCCCCCCCC.[O-][Cl+3]([O-])([O-])[O-]	0.497 ± 0.055	0.582 ± 0.062	0.531 ± 0.058	0.623 ± 0.066
CCCCCCC [heptane] + CCCCCCCCCC[N+](C)(C)CCCCCCCCCC.F[B-](F)(F)F	3.04 ± 0.32	2.62 ± 0.28	2.48 ± 0.26	3.53 ± 0.37
CCCCCCC [heptane] + CCCCCCCCCC[N+](C)(C)CCCCCCCCCC.[O-][Cl+3]([O-])([O-])[O-]	2.96 ± 0.31	2.85 ± 0.3	2.67 ± 0.28	3.11 ± 0.33
C=CCCCC [hex-1-ene] + CCCCCCCCCC[N+](C)(C)CCCCCCCCCC.F[B-](F)(F)F	1.52 ± 0.16	1.53 ± 0.16	1.76 ± 0.18	1.51 ± 0.16
C=CCCCC [hex-1-ene] + CCCCCCCCCC[N+](C)(C)CCCCCCCCCC.[O-][Cl+3]([O-])([O-])[O-]	1.56 ± 0.16	1.8 ± 0.19	1.73 ± 0.18	2.28 ± 0.24
CCCCCC [hexane] + CCCCCCCCCC[N+](C)(C)CCCCCCCCCC.F[B-](F)(F)F	2.51 ± 0.26	2.3 ± 0.24	2.2 ± 0.23	2.73 ± 0.29
CCCCCC [hexane] + CCCCCCCCCC[N+](C)(C)CCCCCCCCCC.[O-][Cl+3]([O-])([O-])[O-]	2.48 ± 0.26	2.47 ± 0.26	2.45 ± 0.26	2.49 ± 0.26
CO [methanol] + CCCCCCCCCC[N+](C)(C)CCCCCCCCCC.F[B-](F)(F)F	0.289 ± 0.038	0.285 ± 0.038	0.327 ± 0.041	0.294 ± 0.039
CO [methanol] + CCCCCCCCCC[N+](C)(C)CCCCCCCCCC.[O-][Cl+3]([O-])([O-])[O-]	0.351 ± 0.043	0.419 ± 0.048	0.407 ± 0.047	0.447 ± 0.051
C=CCCCCCC [oct-1-ene] + CCCCCCCCCC[N+](C)(C)CCCCCCCCCC.F[B-](F)(F)F	0.757 ± 0.078	0.749 ± 0.078	0.951 ± 0.097	0.765 ± 0.079
C=CCCCCCC [oct-1-ene] + CCCCCCCCCC[N+](C)(C)CCCCCCCCCC.[O-][Cl+3]([O-])([O-])[O-]	0.999 ± 0.1	1.04 ± 0.11	0.938 ± 0.096	1.1 ± 0.11
CCCCCCCC [octane] + CCCCCCCCCC[N+](C)(C)CCCCCCCCCC.F[B-](F)(F)F	3.71 ± 0.39	3.13 ± 0.33	2.89 ± 0.3	4.41 ± 0.46
CCCCCCCC [octane] + CCCCCCCCCC[N+](C)(C)CCCCCCCCCC.[O-][Cl+3]([O-])([O-])[O-]	3.69 ± 0.39	3.42 ± 0.36	3.16 ± 0.33	3.98 ± 0.42
CCCCC [pentane] + CCCCCCCCCC[N+](C)(C)CCCCCCCCCC.F[B-](F)(F)F	1.51 ± 0.16	1.24 ± 0.13	1.08 ± 0.11	1.85 ± 0.19
CCCCC [pentane] + CCCCCCCCCC[N+](C)(C)CCCCCCCCCC.[O-][Cl+3]([O-])([O-])[O-]	1.59 ± 0.17	1.44 ± 0.15	1.28 ± 0.13	1.77 ± 0.18
CC(C)O [propan-2-ol] + CCCCCCCCCC[N+](C)(C)CCCCCCCCCC.F[B-](F)(F)F	3.47 ± 0.37	2.41 ± 0.25	1.9 ± 0.2	
CC(C)O [propan-2-ol] + CCCCCCCCCC[N+](C)(C)CCCCCCCCCC.[O-][Cl+3]([O-])([O-])[O-]	1.5 ± 0.16	1.54 ± 0.16	1.11 ± 0.11	
C1CCOC1 [tetrahydrofuran] + CCCCCCCCCC[N+](C)(C)CCCCCCCCCC.F[B-](F)(F)F	0.662 ± 0.07	0.619 ± 0.066	0.695 ± 0.073	
C1CCOC1 [tetrahydrofuran] + CCCCCCCCCC[N+](C)(C)CCCCCCCCCC.[O-][Cl+3]([O-])([O-])[O-]	0.478 ± 0.053	0.46 ± 0.052	0.536 ± 0.058	
ClC(Cl)Cl [trichloromethane] + CCCCCCCCCC[N+](C)(C)CCCCCCCCCC.F[B-](F)(F)F	0.318 ± 0.04	0.346 ± 0.042	0.399 ± 0.047	
ClC(Cl)Cl [trichloromethane] + CCCCCCCCCC[N+](C)(C)CCCCCCCCCC.[O-][Cl+3]([O-])([O-])[O-]	0.224 ± 0.034	0.29 ± 0.038	0.302 ± 0.039	
